One series concerns the target T1, HER2 (Homo sapiens, UniProt P04626).
T1 construct: HER2 c-terminal kinase domain; made in house
Description: Biochemical flash-plate based kinase assay, HER2. As to conditions: only a range over the listed compounds is given; read-out: HER2 inhibition IC50. The text has this: Active kinase proteins were either obtained from commercial suppliers (Abl, PDGF-Rβ ProQinase, Freiburg/Germany; AblT^315I: Millipore/Upstate, Billerica/USA; PKA: InvitroGen/Panvera, Carlsbad/USA) or prepared in-house (KDR, c-terminal kinase domain AA790-1356, HER2 c-terminal kinase domain, EGFR/HER1 C-terminal kinase domain). As substrates, poly-AGKY for Abl, AblT^315I and PDGF-Rβ (#P-1152 Sigma, Munich/Germany), poly-GluTyr for KDR, HER2 and EGFR/HER1 (#P-0275, Sigma, Munich/Germany) or a PKA substrate peptide for PKA (#12-394, Millipore/Upstate, Billerica/USA) were used. Into each well of a 96-well flashplate (#SMP-200 in the case of Abl, Abl T^315I, PDGF-Rβ, EGFR, HER2 and KDR, #SMP-103 in the case of PKA; Perkin Elmer, Waltham/USA) kinase protein was diluted into kinase assay buffer (50 mM HEPES pH 7.5, 3 mM MgCl2, 3 mM MnCl2, 1 mM DTT, 3 μM sodium orthovanadate, 5 μg/ml PEG 8000) containing the appropriate substrate (final volume 89 μl). DMSO vehicle or compounds are added as 1 μl/well prior to the initiation of the kinase reaction by 10 μl 1 mM [^33P]-γATP (4×10^5 cpm). […] Plates were washed three times with 0.9% w/v NaCl and quantitated by liquid scintillation counting.

Series [1] concerns SKOV3 ovarian carcinoma cell line. Description: Cellular cytotoxicity assay (Alamar Blue), SKOV3. In kind it is cell-based. The settings on record: Homo sapiens, SK-OV-3; 72 h; only a range over the listed compounds is given; read-out: Cytotoxicity towards SKOV3 cell line IC50. On the procedure: (§1) The anti-proliferative activity of the chimeric HDAC and protein kinase inhibitory chimeric compounds of the present invention was evaluated using HeLa cervical carcinoma, A549 NSCLC, SKOV3 ovarian carcinoma, Cal27 head and neck cancer, K562 chronic myeloid leukemia (CML) and EOL1 acute hypereosinophilic myeloid leukemia, cell lines. For quantification of cellular proliferation/living cells the Alamar Blue (Resazurin) cell viability assay was applied (O'Brien et al. Eur Biochem. 267, 5421-5426, 2000). In this assay Resazurin is reduced to the fluorescent resorufin by cellular dehydrogenase activity, correlating with viable, proliferating cells. The examples were dissolved as 20 mM solutions in dimethylsulfoxide (DMSO) and subsequently diluted in semi-logarithmic steps. Cell lines were seeded at respective density into 96 well flat bottom plates in a volume of 200 μl per well. 24 h after seeding 1 μl each of the compound dilutions were added into each well of the 96 well plate. Each compound dilution was tested as quadruplicates. Wells containing untreated control cells were filled with […] DMEM medium containing 0.5% v:v DMSO. The cells were then incubated with the substances for 72 h at 37° C. in a humidified atmosphere containing 5% carbon dioxide. To determine the viability of the cells, 20 μl of an Resazurin solution (Sigma; 90 mg/l) were added. After 4 h incubation at 37° C. the fluorescence was measured at an extinction of 544 nm and an emission of 590 nm. For the calculation of the cell viability the emission value from untreated cells was set as 100% viability and the emission rates of treated cells were set in relation to the values of untreated cells. Viabilities were expressed as % values. The corresponding IC50 values of the compounds for cytotoxic activity are determined from the concentration-effect curves by means of non-linear regression.
Background: The colour change of resazurin is a common sign of viable cells or microbes.

For series [2], the system named is HeLa cervical carcinoma cell line. Put plainly: Cellular cytotoxicity assay (Alamar Blue), HeLa. As to conditions: Homo sapiens, 72 h. In kind it is cell-based.
Series [3] has as its system histone H3 hyperacetylation in HeLa cervical carcinoma cells. Put plainly: Cellular histone H3 hyperacetylation assay. In kind it is cell-based. The settings on record: Homo sapiens, 24 h, only a range over the listed compounds is given, read-out: Induction of histone H3 hyperacetylation in HeLa cervical carcinoma cells EC50. The text has this:
To assess the cellular efficacy of a histone deacetylase inhibitor in vitro, an assay was set up in black clear-bottom 96-well plates and optimized for use on the Cellomics “ArrayScan II” platform for a quantitative calculation of histone acetylation. The protocol uses a polyclonal rabbit antibody, specifically binding to acetylated lysine 1-20 of human histone H3 on fixed cells with an Alexa Fluor 488 labeled goat anti rabbit-IgG used for counterstaining (Beckers et al. Int J. Cancer 121, 1138, 2007).
5×10^3 HeLa cervical carcinoma cells/well (ATCC. CCL-2) in 200 μl Dulbecco rs modified Eagle's medium (DMEM) containing 10% fetal calf serum are seeded at day 1 in Packard view plates and incubated for 24 h under standard cell culture conditions. On day 2, 1 μl test compound (200× final concentration) is added and incubation continued for further 24 h. On day 3, the culture medium is discarded and attached cells fixed for 15 min at room temperature by addition of 100 μl fixation buffer (3.7% v:v formaldehyde in phosphate buffered saline/PBS). After discarding the fixation buffer and one wash with blocking solution (1% BSA, 0.3% Tween 20 in PBS), cells are permeabilized at room temperature by addition of 100 μl/well permeabilization buffer (30.8 mM NaCl, 0.54 mM Na2HPO4, 0.31 mM KH2PO4, 0.1% v:v Triton X-100) for 15 min at room temperature. After discarding the permeabilization buffer and washing twice with 100 μl/well blocking solution at room temperature, the 1st antibody (anti-K^1-20 histone H3 antibody, Calbiochem No. 382158) in blocking solution (50 μl/well) is added. After incubation for 1 h at room temperature, the wells are washed twice at room temperature with 100 μl/well blocking solution before addition of the 2nd antibody (goat-anti-rabbit Alexa Fluor 488; MoBiTec No. A-11008) in blocking solution (50 μl/well). After further incubation for 1 h at room temperature, wells are washed twice with 100 μl/well blocking solution at room temperature. Finally, 100 μl/well PBS are added and image analysis performed on the Cellomics “ArrayScan II” platform. For EC50 determination, the percentage of positive cells showing nuclear fluorescence is determined and EC50 calculation done from concentration-effect curves by means of non-linear regression. For calibration, a positive (reference HDAC inhibitors like SAHA or NVP LBH-589) and a negative control were included.

Series [4] has as its target T2, recombinant HDAC1 isolated from HEK293 cells with heterologous HDAC1 expression (Homo sapiens, UniProt Q13547).
T2 construct: made in house
Description: Fluorimetric rHDAC1 activity assay. In kind it is biochemical. The settings on record: only a range of IC50 over the compounds given; read-out: rHDAC1 inhibitory activity IC50.

The next series has as its target T3, Protein kinase A (PKA) (Homo sapiens, UniProt P17612).
T3 construct: purchased InvitroGen/Panvera, Carlsbad/USA
Description: Biochemical flash-plate based kinase assay, PKA. The text has this: (§2) Active kinase proteins were either obtained from commercial suppliers (Abl, PDGF-Rβ ProQinase, Freiburg/Germany; AblT^315I: Millipore/Upstate, Billerica/USA; PKA: InvitroGen/Panvera, Carlsbad/USA) or prepared in-house (KDR, c-terminal kinase domain AA790-1356, HER2 c-terminal kinase domain, EGFR/HER1 C-terminal kinase domain). As substrates, poly-AGKY for Abl, AblT^315I and PDGF-Rβ (#P-1152 Sigma, Munich/Germany), poly-GluTyr for KDR, HER2 and EGFR/HER1 (#P-0275, Sigma, Munich/Germany) or a PKA substrate peptide for PKA (#12-394, Millipore/Upstate, Billerica/USA) were used. Into each well of a 96-well flashplate (#SMP-200 in the case of Abl, Abl T^315I, PDGF-Rβ, EGFR, HER2 and KDR, #SMP-103 in the case of PKA; Perkin Elmer, Waltham/USA) kinase protein was diluted into kinase assay buffer (50 mM HEPES pH 7.5, 3 mM MgCl2, 3 mM MnCl2, 1 mM DTT, 3 μM sodium orthovanadate, 5 μg/ml PEG 8000) containing the appropriate substrate (final volume 89 μl). DMSO vehicle or compounds are added as 1 μl/well prior to the initiation of the kinase reaction by 10 μl 1 mM [^33P]-γATP (4×10^5 cpm). Reactions were allowed to proceed for a time predetermined to be linear on a time versus phosphorylation plot (30 min for PKA, otherwise 80 min) and terminated with the addition of an equal volume of phosphoric acid (2% H3PO4 for 5 minutes). Plates were washed three times with 0.9% w/v NaCl and quantitated by liquid scintillation counting.

Another series concerns the target T4, HDAC11 (Homo sapiens, UniProt Q96DB2).
T4 sequence (Q96DB2 1-347): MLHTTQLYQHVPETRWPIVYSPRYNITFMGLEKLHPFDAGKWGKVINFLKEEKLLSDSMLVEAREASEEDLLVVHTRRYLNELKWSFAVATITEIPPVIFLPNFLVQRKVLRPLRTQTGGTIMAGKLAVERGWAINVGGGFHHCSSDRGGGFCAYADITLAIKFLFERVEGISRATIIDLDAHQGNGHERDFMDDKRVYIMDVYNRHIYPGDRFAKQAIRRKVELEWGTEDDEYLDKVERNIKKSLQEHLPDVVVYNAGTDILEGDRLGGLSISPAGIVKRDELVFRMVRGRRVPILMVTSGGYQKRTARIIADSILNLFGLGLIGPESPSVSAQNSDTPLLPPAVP
The settings on record: Kalita et al. 2005; one range for HDAC1, 2, 3 and 11; cited from earlier work.

The test system of the next series is HDACs 4 to 8. The settings on record: read-out: HDACs 4 to 8 IC50; Kalita et al. 2005; cited from earlier work.
For the next series, the system named is A549 NSCLC cell line. Put plainly: Cellular cytotoxicity assay (Alamar Blue), A549. In kind it is cell-based. The settings on record: Homo sapiens, A549; 72 h; only a range over the listed compounds is given; read-out: Cytotoxicity towards A549 NSCLC cell line IC50.
In series [5] the test system is Cal27 head and neck cancer cell line. Put plainly: Cellular cytotoxicity assay (Alamar Blue), Cal27. In kind it is cell-based. As to conditions: Homo sapiens, CAL-27; 72 h; only a range over the listed compounds is given; read-out: Cytotoxicity towards Cal27 cell line IC50. On the procedure: as §1
Series [6] deals with cellular HDAC activity in HeLa cells. Description: Quantification of cellular HDAC activity in HeLa cells. In kind it is cell-based, human. As to conditions: 4 h compound incubation; for lists of compounds only a range is printed; read-out: Inhibition of cellular HDAC activity in HeLa cells IC50. On the procedure: To assess the cellular potency of histone deacetylase inhibitors, an assay recently described was applied (Ciossek et al. Anal Biochem e-pub 2007). 5×10^3 HeLa cervical carcinoma cells/well (ATCC CCL-2) were cultivated in 200 μl/well DMEM (containing 10% FCS) in cell culture microliter plates (white, 96 well flat bottom plates suitable for fluorimetric analysis; Costar Art. No. 3917). Cells were cultivated for 24 h under standard cell culture conditions at 37° C. and 5% CO2 to allow cell attachment and proliferation. The compounds of the present invention were added at different concentrations (dilutions done in DMSO) and incubation continued for 4 h at 37° C. under cell culture conditions (each concentration was tested in quadruplicate). […] After discarding the culture medium, 100 μl/well substrate solution (200 μM Boc-K(Ac)-AMC in DMEM (containing 10% FCS), stock solution diluted 1:250) were added and incubation continued at 37° C. under cell culture conditions for further 3 h. […] After incubation for 5 min at 37° C., cells were lysed by addition of 100 μl/well lysis buffer (50 mM TRIS pH 8, 137 mM NaCl, 2.7 mM KCl, 1 mM MgCl2, 1 vol % NP-40) and further incubation for 20 min at 37° C. Finally, the amount of AMC was quantified using the Wallac Victor device (extinction λ=355 nm, emission at λ=460 inn).

The next series has as its target T5, Bcr-abl T^315I (Homo sapiens, UniProt P00519, T315I).
T5 construct: purchased Millipore/Upstate, Billerica/USA
Description: Biochemical flash-plate based kinase assay, Bcr-abl T315I. The settings on record: only a range over the listed compounds is given; read-out: Bcr-abl T^315I inhibition IC50.
Source text: as §2

Where a name gives a salt, the structure may show the parent alone. Read-outs that look alike come from different tables or passages of the source.

T1 sequence (P04626 720-987 limits assumed): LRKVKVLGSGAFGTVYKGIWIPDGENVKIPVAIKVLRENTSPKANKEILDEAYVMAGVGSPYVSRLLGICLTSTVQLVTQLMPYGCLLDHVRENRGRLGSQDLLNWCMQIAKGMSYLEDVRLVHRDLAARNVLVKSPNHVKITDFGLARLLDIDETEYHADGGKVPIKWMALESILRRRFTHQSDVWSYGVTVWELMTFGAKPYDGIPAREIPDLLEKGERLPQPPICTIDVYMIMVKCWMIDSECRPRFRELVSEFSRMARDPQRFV
T2 sequence (Q13547 whole entry): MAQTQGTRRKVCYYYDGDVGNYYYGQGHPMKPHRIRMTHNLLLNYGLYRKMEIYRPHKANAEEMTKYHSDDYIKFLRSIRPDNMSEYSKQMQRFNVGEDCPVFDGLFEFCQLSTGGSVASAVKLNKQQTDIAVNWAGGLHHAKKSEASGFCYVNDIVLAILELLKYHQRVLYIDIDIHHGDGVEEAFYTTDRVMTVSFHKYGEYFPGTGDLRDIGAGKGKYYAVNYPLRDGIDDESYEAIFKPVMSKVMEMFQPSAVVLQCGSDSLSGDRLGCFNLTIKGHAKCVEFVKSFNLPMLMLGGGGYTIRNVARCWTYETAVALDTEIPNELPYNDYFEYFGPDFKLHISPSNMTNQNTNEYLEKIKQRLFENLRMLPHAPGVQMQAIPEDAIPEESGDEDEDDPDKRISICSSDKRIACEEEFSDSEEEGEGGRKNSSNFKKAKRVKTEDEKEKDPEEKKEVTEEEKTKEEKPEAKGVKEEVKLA

As to `C#Cc1cccc(Nc2ncnc3cc(NC(=O)c4ccc(C(=O)Nc5ccccc5N)nc4)ccc23)c1` [[39], Pyridine-2,5-dicarboxylic acid 2-[(2-amino-phenyl)-amide]-5-{[4-(3-ethynyl-phenylamino)-quinazolin-7-yl]-amide}], the IC50 (as a rule, the concentration that inhibits the measured activity by half) at HER2 was 0.002 to 0.74 µM; in series [1] it was at least 0.56 µM.

In the case of `O=C(NO)c1ccc(-c2ccc3ncnc(Nc4ccc(OCc5cccc(F)c5)c(Cl)c4)c3c2)o1` [[6], 5-{4-[3-Chloro-4-(3-fluorobenzyloxy)phenylamino]-quinazolin-6-yl}furan-2-carboxylic acid hydroxyamide hydrochloride monohydrate], the IC50 on HER2 is 0.002 to 0.74 µM; in series [2] (read-out: Cytotoxicity towards HeLa cervical cell line IC50 (M)), 9.1e-07 to 9.4e-06 M; in series [4] it was at least 0.0353 µM; at Protein kinase A (PKA), 85 µM. In addition, in series [3], the EC50 (as a rule, the midpoint of the concentration-response curve) was at least 3.65 µM.

`Nc1ccccc1NC(=O)c1ccc(CNc2nccc(-c3cccnc3)n2)cc1` [MGCD0103]: the results for the IC50 on HDAC11 and in the series with HDACs 4 to 8 were 0.1 to 2 µM and over 20 µM, respectively.

Take `O=C(/C=C/c1cccc(-c2ccc3ncnc(Nc4ccc(OCc5cccc(F)c5)c(Cl)c4)c3c2)c1)NO` [[9], E-3-(3-(4-(3-chloro-4-(3-fluorobenzyloxy)phenylamino)quinazolin-6-yl)phenyl)-N-hydroxy-acrylamide]: the IC50 with A549 NSCLC cell line was at least 1.1 µM; in [2] (only a range over the listed compounds is given, read-out: Cytotoxicity towards HeLa cervical cell line IC50) it was 9.1e-07 to 9.4e-06 M; in series [1] it was at least 1 µM; in series [4] it was at least 0.0353 µM; in [5] it was at least 0.28 µM; in [6] it was 0.43 µM. Further, the concentration giving a half-maximal response (EC50) in series [3] is at least 3.65 µM.

Take `CN(C(=O)c1ccc(C(=O)Nc2ccccc2N)cc1)c1cccc(Nc2nccc(-c3cccnc3)n2)c1` [[30], N-(2-Amino-phenyl)-N′-methyl-N′-[3-(4-pyridin-3-yl-pyrimidin-2-ylamino)-phenyl]-terephthalamide]: the melting point (usually the temperature of the solid-liquid transition) is 204.6 °C (dec.). This compound gave a half-inhibitory concentration (IC50) against Protein kinase A (PKA) of 38 µM. For the same compound, at Bcr-abl T^315I, the IC50 lay within 1 to 34 µM.

The record behind these values is patent US20110065734A1, “NOVEL BIFUNCTIONAL COMPOUNDS WHICH INHIBIT PROTEIN KINASES AND HISTONE DEACETYLASES” (4SC AG, priority 2007, published 2011).
